Data on one compound can be found in patent US6342247B1, “Pharmaceutical compositions containing irbesartan” (Sanofi-Synthelabo, priority 1995, dated 2002).

The structures appear in SMILES notation.

The series can be described thus: Stability of tablets / hydrochlorothiazide degradation depending on excipients. The class given is physicochemical. The text has this:
Under certain conditions, hydrochlorothiazide can hydrolyze to form, as by-product products, a free amine degradant and formaldehyde (D.S. Desai et al., International Journal of Phaxmaceutics, 107(2), 141-47 (1994)). The selection of excipients can impact the stability of hydrochlorothiazide. […] The aforementioned preferred compositions of the present invention containing irbesartan and hydrochlorothiazide are thus further advantageous since the excipients employed therein minimize or eliminate hydrochlorothiazide degradation.

As to `NS(=O)(=O)c1cc2c(cc1Cl)NCNS2(=O)=O` [hydrochlorothiazide], under “poloxamer in the composition”, the degradation of hydrochlorothiazide result is given as “increase the degradation”. The stability of hydrochlorothiazide entry is given as “formation of quantities of the free amine degradant” (povidone as binder) and “greater stability” (pregelatinized starch as binder, compared with povidone).
